# How the values were obtained:
# Test in all cases: relative viability (nuclei count vs DMSO), 5 days (fraction); higher = more cells survive
# [1] = compound: O=C(Nc1cccc(C(F)(F)F)c1)Nc1cc(S(=O)(=O)NC2CC2)ccc1-c1ccsc1 [AGI-6780] + CC(=O)c1c(C)c2cnc(Nc3ccc(N4CCNCC4)cn3)nc2n(C2CCCC2)c1=O [Palbociclib] (partner 0.5 µM)
# Outline: (§1)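 Values are medians from duplicate plates. Each reflects relative viability, defined as the nuclei count of treated wells over that of vehicle wells. Lung cancer cell lines in 1536-well plates were pin-tool dosed one day after seeding with one drug alone or with a fixed anchor-drug dose plus five library-drug doses (not always all listed) in √10 steps, then fixed, stained and imaged at 4× after 5 days.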
# [2] = compound: O=C(Nc1cccc(C(F)(F)F)c1)Nc1cc(S(=O)(=O)NC2CC2)ccc1-c1ccsc1 [AGI-6780] + CCNC(=O)c1noc(-c2cc(C(C)C)c(O)cc2O)c1-c1ccc(CN2CCOCC2)cc1 [Luminespib] (partner 0.01 µM)
# Outline: as §1
# [3] = compound: O=C(Nc1cccc(C(F)(F)F)c1)Nc1cc(S(=O)(=O)NC2CC2)ccc1-c1ccsc1 [AGI-6780] + COc1cccc2cc(-c3nc([C@H]4CC[C@H](C(=O)O)CC4)n4ncnc(N)c34)[nH]c12 [OSI-027] (partner 0.5 µM)
# Outline: as §1
# [4] = compound: O=C(Nc1cccc(C(F)(F)F)c1)Nc1cc(S(=O)(=O)NC2CC2)ccc1-c1ccsc1 [AGI-6780] + CS(=O)(=O)N1CCN(Cc2cc3nc(-c4cccc5[nH]ncc45)nc(N4CCOCC4)c3s2)CC1 [Pictilisib] (partner 1 µM)
# Outline: as §1
Cell Line,relative viability ([1]; first compound 0.08 µM),relative viability ([1]; first compound 0.253 µM),relative viability ([1]; first compound 0.8 µM),relative viability ([1]; first compound 2.53 µM),relative viability ([1]; first compound 8 µM),relative viability ([2]; first compound 0.08 µM),relative viability ([2]; first compound 0.253 µM),relative viability ([2]; first compound 0.8 µM),relative viability ([2]; first compound 2.53 µM),relative viability ([2]; first compound 8 µM),relative viability ([3]; first compound 0.08 µM),relative viability ([3]; first compound 0.253 µM),relative viability ([3]; first compound 0.8 µM),relative viability ([3]; first compound 2.53 µM),relative viability ([3]; first compound 8 µM),relative viability ([4]; first compound 0.08 µM),relative viability ([4]; first compound 0.253 µM),relative viability ([4]; first compound 0.8 µM),relative viability ([4]; first compound 2.53 µM),relative viability ([4]; first compound 8 µM)
NCI-H838,0.252,0.267,0.221,0.218,0.224,0.374,0.353,0.339,0.303,0.274,0.424,0.434,0.357,0.378,0.39,0.473,0.479,0.469,0.447,0.48
HCC-44,0.969,0.978,0.959,0.99,0.966,1.18,1.01,1.16,1.09,0.982,0.628,0.719,0.477,0.47,0.594,0.745,0.72,0.649,0.496,0.486
IA-LM,,,,,,,,,,,,,,,,0.452,0.38,0.39,0.301,0.476
NCI-H1734,0.371,0.379,0.297,0.285,0.352,0.216,0.233,0.201,0.19,0.177,0.588,0.665,0.621,0.442,0.573,0.528,0.479,0.419,,0.447
NCI-H1944,0.365,0.331,0.32,,0.403,0.814,0.711,0.709,,0.768,0.414,0.466,0.461,,0.425,0.358,0.366,0.386,0.323,0.381
CAL-12T,0.407,0.465,0.651,0.46,0.367,0.245,0.58,0.644,0.476,0.402,0.748,0.76,0.693,0.428,0.519,,0.575,0.531,0.717,0.644
LXF-289,0.606,0.65,0.586,0.586,0.6,0.776,0.723,0.679,0.606,0.659,0.862,0.843,0.844,0.666,0.921,0.827,0.803,0.766,0.741,0.827
NCI-H661,0.418,0.41,0.411,0.371,0.432,0.928,0.938,0.951,1.01,0.87,0.722,0.745,0.933,0.661,0.772,0.378,0.482,0.45,0.317,0.381
A-427,,0.504,0.548,0.462,0.491,0.943,0.717,0.882,0.802,0.97,0.477,0.458,0.507,0.384,0.509,0.702,0.753,0.653,0.524,0.854
COR-L23,0.322,0.257,0.298,0.277,0.329,0.772,0.641,0.695,0.663,0.643,0.743,0.77,0.705,0.527,0.784,0.772,0.755,0.702,0.66,0.827
NCI-H460,0.145,0.211,0.144,0.136,0.15,0.0337,0.0309,0.0296,0.0322,0.0345,0.752,0.639,0.845,0.574,0.694,0.325,0.338,0.382,0.242,0.374
HCC-78,0.457,0.395,0.443,0.42,0.458,,,,,,,0.37,0.431,0.364,0.355,0.159,0.241,0.299,0.152,0.249
NCI-H1648,0.242,0.232,0.335,0.26,0.25,,,,,,0.26,0.292,0.258,0.277,0.242,,,,,
SW 900,0.629,0.527,0.496,0.566,0.552,0.167,0.17,0.163,0.185,0.176,0.649,0.684,0.811,0.415,0.741,,,,,
NCI-H596,,,,,,1,0.995,0.982,,1.09,0.803,0.841,0.643,,0.647,0.419,0.399,0.376,0.382,0.476
NCI-H522,0.97,0.972,0.968,,0.86,1.18,1.14,1.1,1.12,1.17,0.782,0.724,0.804,0.564,0.751,,,,,
A549,,,,,,,,,,,,,,,,0.583,0.463,0.604,0.459,0.463
HCC-366,0.369,0.388,0.41,0.29,0.405,,,,,,1.02,1.09,0.926,0.595,1,0.185,0.111,0.108,0.15,0.175
NCI-H1299,,,,,,,,,,,,,,,,0.781,0.733,0.639,0.765,0.742
Calu-6,,,,,,,,,,,,,,,,0.996,0.891,0.929,0.908,0.937
NCI-H1563,,,,,,0.585,0.537,0.577,0.492,0.542,0.784,0.752,0.805,0.666,0.728,0.621,0.629,0.628,0.614,0.519

# From the supplement of paper PMC10307832
